In US20250064941A1, “SIGLEC LIGANDS, CONJUGATES, AND METHODS OF USE THEREOF” (Osprey Biopharmaceuticals, Inc., priority 2023, published 2025):

How the values were obtained:
[1] = biological target: T1, mouse Siglec-2-Fc-Avi (CD22) (Mus musculus, UniProt P35329); assay: SPR binding affinity to mouse CD22; details: steady-state analysis
T1 construct: made in house
T1 sequence (P35329 22-708 limits assumed): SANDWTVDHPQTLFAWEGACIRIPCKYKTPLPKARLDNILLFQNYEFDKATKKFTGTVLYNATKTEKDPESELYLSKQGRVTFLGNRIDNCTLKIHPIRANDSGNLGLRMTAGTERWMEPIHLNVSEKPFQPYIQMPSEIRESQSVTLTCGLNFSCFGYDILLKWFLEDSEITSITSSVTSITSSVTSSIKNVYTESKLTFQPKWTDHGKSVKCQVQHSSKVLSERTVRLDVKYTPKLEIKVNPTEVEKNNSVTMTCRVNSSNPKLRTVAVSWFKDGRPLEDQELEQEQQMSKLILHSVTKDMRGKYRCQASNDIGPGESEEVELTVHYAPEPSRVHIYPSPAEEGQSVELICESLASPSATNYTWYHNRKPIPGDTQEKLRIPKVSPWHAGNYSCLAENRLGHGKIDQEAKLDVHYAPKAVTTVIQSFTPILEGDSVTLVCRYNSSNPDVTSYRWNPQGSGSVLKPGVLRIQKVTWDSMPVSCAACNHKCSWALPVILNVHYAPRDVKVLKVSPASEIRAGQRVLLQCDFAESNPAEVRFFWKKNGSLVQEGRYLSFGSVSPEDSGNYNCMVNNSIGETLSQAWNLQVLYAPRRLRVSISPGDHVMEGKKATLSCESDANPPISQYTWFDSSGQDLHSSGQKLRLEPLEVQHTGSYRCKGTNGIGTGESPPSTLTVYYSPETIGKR
Summary of the method: (§1)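 Steady-state fits gave the affinities. Before capture on a streptavidin surface, biotinylated CD22 had native sialic acids stripped (SialoExo, 4 hours, 37° C.). Running buffer: 10 mM HEPES pH 7.5, 150 mM NaCl, 0.05% Tween-20, 1% DMSO, with DMSO solvent correction.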

[2] = biological target: T2, human Siglec-2/CD22 protein (Homo sapiens, UniProt P20273); assay: SPR binding affinity to human CD22; details: steady-state analysis
T2 construct: purchased Acro Biosystems SI2-H82E3
T2 sequence (P20273 20-847): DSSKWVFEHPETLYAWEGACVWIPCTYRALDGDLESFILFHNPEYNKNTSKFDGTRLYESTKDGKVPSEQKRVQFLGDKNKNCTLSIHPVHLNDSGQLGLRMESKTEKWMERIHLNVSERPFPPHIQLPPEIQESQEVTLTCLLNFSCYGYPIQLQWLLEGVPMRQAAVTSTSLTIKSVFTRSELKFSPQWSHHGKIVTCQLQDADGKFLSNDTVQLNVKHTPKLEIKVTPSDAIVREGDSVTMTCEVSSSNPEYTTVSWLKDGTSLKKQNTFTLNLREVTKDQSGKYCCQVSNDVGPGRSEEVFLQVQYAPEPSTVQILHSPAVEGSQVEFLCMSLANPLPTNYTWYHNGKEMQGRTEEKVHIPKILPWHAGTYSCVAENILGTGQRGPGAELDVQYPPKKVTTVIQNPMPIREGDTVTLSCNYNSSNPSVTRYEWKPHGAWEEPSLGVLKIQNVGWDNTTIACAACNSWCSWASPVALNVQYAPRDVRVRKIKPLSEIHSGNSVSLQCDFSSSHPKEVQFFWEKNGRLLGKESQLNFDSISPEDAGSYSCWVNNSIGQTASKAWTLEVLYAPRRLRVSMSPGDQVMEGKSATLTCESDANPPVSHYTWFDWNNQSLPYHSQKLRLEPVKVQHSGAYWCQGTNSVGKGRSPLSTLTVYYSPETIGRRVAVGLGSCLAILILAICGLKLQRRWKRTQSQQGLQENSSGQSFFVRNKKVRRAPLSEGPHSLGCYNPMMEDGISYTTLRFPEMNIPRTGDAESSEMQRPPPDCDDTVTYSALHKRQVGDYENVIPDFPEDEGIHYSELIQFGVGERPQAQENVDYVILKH
Summary of the method: as §1

cynomolgus Siglec-2/CD22 = cynomolgus Siglec-2/CD22 (Macaca fascicularis, UniProt A0A2K5WCZ6); assay: biochemical; assay type: binding; details: SPR, steady-state analysis; read-out: Affinity cyno CD22
Chain of cynomolgus Siglec-2/CD22 (A0A2K5WCZ6 entry or part of it): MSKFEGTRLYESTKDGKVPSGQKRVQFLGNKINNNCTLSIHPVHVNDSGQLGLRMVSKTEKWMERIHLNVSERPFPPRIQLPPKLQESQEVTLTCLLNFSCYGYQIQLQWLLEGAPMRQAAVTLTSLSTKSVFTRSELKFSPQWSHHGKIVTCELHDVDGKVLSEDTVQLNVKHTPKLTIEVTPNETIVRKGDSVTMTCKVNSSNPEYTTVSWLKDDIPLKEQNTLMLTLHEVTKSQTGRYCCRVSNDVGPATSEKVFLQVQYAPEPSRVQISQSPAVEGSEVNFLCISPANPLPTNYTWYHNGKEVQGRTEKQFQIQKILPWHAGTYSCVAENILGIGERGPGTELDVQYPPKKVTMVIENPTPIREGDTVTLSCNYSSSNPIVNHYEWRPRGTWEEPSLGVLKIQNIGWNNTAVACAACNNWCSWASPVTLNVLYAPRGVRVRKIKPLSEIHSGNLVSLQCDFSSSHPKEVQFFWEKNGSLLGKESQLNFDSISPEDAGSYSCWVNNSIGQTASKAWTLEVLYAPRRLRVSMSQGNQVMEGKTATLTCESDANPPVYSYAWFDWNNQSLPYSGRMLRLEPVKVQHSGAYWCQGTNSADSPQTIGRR
Summary of the method: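 SPR with desialylated (SialoExo, 4 h, 37° C.) cynomolgus CD22 amine-coupled to a CM5 chip. Running buffer 10 mM HEPES, 150 mM NaCl, 0.05% Tween-20, pH 7.5, 1% DMSO, with solvent correction; 120 s dissociation. Affinities from steady-state analysis.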

| Structure (SMILES) | Kd [1] | Kd [2] | Kd (cynomolgus Siglec-2/CD22) |
| --- | --- | --- | --- |
| CCCNC(=O)CCCCCCO[C@]1(C(=O)O)C[C@H](O)[C@@H](NC(=O)CO)[C@H]([C@H](O)[C@H](O)CNC(=O)Cc2cccc(O)c2)O1 [Compound 207, (2R,4S,5R,6R)-6-((1R,2R)-1,2-dihydroxy-3-(2-(3-hydroxyphenyl)acetamido)propyl)-4-hydroxy-5-(2-hydroxyacetamido)-2-((7-oxo-7-(propylamino)heptyl)oxy)tetrahydro-2H-pyran-2-carboxylic acid] | 1000 to 10000 nM | 1000 to 10000 nM | 1000 to 10000 nM |
| C#CCOCCOCCO[C@]1(C(=O)O)C[C@H](O)[C@@H](NC(=O)CO)[C@H]([C@H](O)[C@H](O)CNC(=O)Cc2ccc(-c3ccccc3)cc2O)O1 [Compound 67, (2R,4S,5R,6R)-6-((1R,2R)-1,2-dihydroxy-3-(2-(3-hydroxy-[1,1′-biphenyl]-4-yl)acetamido)propyl)-4-hydroxy-5-(2-hydroxyacetamido)-2-(2-(2-(prop-2-yn-1-yloxy)ethoxy)ethoxy)tetrahydro-2H-pyran-2-carboxylic acid] | 1000 to 10000 nM | 1000 to 10000 nM | 1000 to 10000 nM |
| O=C(Cc1ccc(Cl)cc1)NC[C@@H](O)[C@@H](O)[C@@H]1O[C@@](SCc2ccc(C(=O)O)cc2)(C(=O)O)C[C@H](O)[C@H]1NC(=O)CO [Compound 195, (2S,4S,5R,6R)-2-((4-carboxybenzyl)thio)-6-((1R,2R)-3-(2-(4-chlorophenyl)acetamido)-1,2-dihydroxypropyl)-4-hydroxy-5-(2-hydroxyacetamido)tetrahydro-2H-pyran-2-carboxylic acid] | < 1000 nM | < 1000 nM | < 1000 nM |
| CC(=O)NCCOCCOCCOCCOCc1cn(CCCCCCCCO[C@]2(C(=O)O)C[C@H](O)[C@@H](NC(=O)CO)[C@H]([C@H](O)[C@H](O)CNC(=O)Cc3ccc(C(F)F)cc3)O2)nn1 [Compound 259, (2R,4S,5R,6R)-6-((1R,2R)-3-(2-(4-(difluoromethyl)phenyl)acetamido)-1,2-dihydroxypropyl)-4-hydroxy-5-(2-hydroxyacetamido)-2-((8-(4-(15-oxo-2,5,8,11-tetraoxa-14-azahexadecyl)-1H-1,2,3-triazol-1-yl)octyl)oxy)tetrahydro-2H-pyran-2-carboxylic acid] | < 1000 nM | < 1000 nM | < 1000 nM |
| C#CCOCCCCCCO[C@]1(C(=O)O)C[C@H](O)[C@@H](NC(=O)CO)[C@H]([C@H](O)[C@H](O)CNC(=O)Cc2cccc(OC(F)(F)F)c2)O1 [Compound 155, (2R,4S,5R,6R)-6-((1R,2R)-1,2-dihydroxy-3-(2-(3-(trifluoromethoxy)phenyl)acetamido)propyl)-4-hydroxy-5-(2-hydroxyacetamido)-2-((6-(prop-2-yn-1-yloxy)hexyl)oxy)tetrahydro-2H-pyran-2-carboxylic acid] | 1000 to 10000 nM | < 1000 nM | < 1000 nM |
| C#CCOCCCCCCO[C@]1(C(=O)O)C[C@H](O)[C@@H](NC(=O)C(O)CO)[C@H]([C@H](O)[C@H](O)CNC(=O)Cc2ccc(Cl)cc2)O1 (stereo partly drawn) [Compound 210, (2R,4S,5R,6R)-6-((1R,2R)-3-(2-(4-chlorophenyl)acetamido)-1,2-dihydroxypropyl)-5-(2,3-dihydroxypropanamido)-4-hydroxy-2-((6-(prop-2-yn-1-yloxy)hexyl)oxy)tetrahydro-2H-pyran-2-carboxylic acid] | < 1000 nM | 1000 to 10000 nM | < 1000 nM |

Other lines, results leading:

| Kd [1] | Kd [2] | Kd (cynomolgus Siglec-2/CD22) | Structure (SMILES) |
| --- | --- | --- | --- |
| 1000 to 10000 nM | 1000 to 10000 nM | 1000 to 10000 nM | C#CCCOc1ccc(CO[C@]2(C(=O)O)C[C@H](O)[C@@H](NC(=O)CO)[C@H]([C@H](O)[C@H](O)CNC(=O)Cc3cccc(N4CCOCC4)c3)O2)cc1 [Compound 140, (2R,4S,5R,6R)-2-((4-(but-3-yn-1-yloxy)benzyl)oxy)-6-((1R,2R)-1,2-dihydroxy-3-(2-(3-morpholinophenyl)acetamido)propyl)-4-hydroxy-5-(2-hydroxyacetamido)tetrahydro-2H-pyran-2-carboxylic acid] |
| > 10000 nM | 1000 to 10000 nM | 1000 to 10000 nM | C#CCCOc1cccc(CO[C@]2(C(=O)O)C[C@H](O)[C@@H](NC(C)=O)[C@H]([C@H](O)[C@H](O)CNC(=O)c3cccc(Oc4ccccc4)c3)O2)c1 [Compound 23, (2R,4S,5R,6R)-5-acetamido-2-((3-(but-3-yn-1-yloxy)benzyl)oxy)-6-((1R,2R)-1,2-dihydroxy-3-(3-phenoxybenzamido)propyl)-4-hydroxytetrahydro-2H-pyran-2-carboxylic acid] |
| 1000 to 10000 nM | 1000 to 10000 nM | < 1000 nM | C#CCOCCCCCCO[C@]1(C(=O)O)C[C@H](O)[C@@H](NC(=O)CO)[C@H]([C@H](O)[C@H](O)CNC(=O)Cc2ccc(C#N)cc2)O1 [Compound 162, (2R,4S,5R,6R)-6-((1R,2R)-3-(2-(4-cyanophenyl)acetamido)-1,2-dihydroxypropyl)-4-hydroxy-5-(2-hydroxyacetamido)-2-((6-(prop-2-yn-1-yloxy)hexyl)oxy)tetrahydro-2H-pyran-2-carboxylic acid] |
| 1000 to 10000 nM | < 1000 nM | 1000 to 10000 nM | C#CCOc1ccc(CO[C@]2(C(=O)O)C[C@H](O)[C@@H](NC(=O)CO)[C@H]([C@H](O)[C@H](O)CNC(=O)Cc3ccc(-c4ccc(F)cc4)cc3)O2)cc1 [Compound 48, (2R,4S,5R,6R)-6-((1R,2R)-3-(2-(4′-fluoro-[1,1′-biphenyl]-4-yl)acetamido)-1,2-dihydroxypropyl)-4-hydroxy-5-(2-hydroxyacetamido)-2-((4-(prop-2-yn-1-yloxy)benzyl)oxy)tetrahydro-2H-pyran-2-carboxylic acid] |
| 1000 to 10000 nM | 1000 to 10000 nM | 1000 to 10000 nM | C#CCCOc1ccc(CO[C@]2(C(=O)O)C[C@H](O)[C@@H](NC(=O)CO)[C@H]([C@H](O)[C@H](O)CNC(=O)Cc3ccc4nn[nH]c4c3)O2)cc1 [Compound 9, (2R,4S,5R,6R)-6-((1R,2R)-3-(2-(1H-benzo[d][1,2,3]triazol-6-yl)acetamido)-1,2-dihydroxypropyl)-2-((4-(but-3-yn-1-yloxy)benzyl)oxy)-4-hydroxy-5-(2-hydroxyacetamido)tetrahydro-2H-pyran-2-carboxylic acid] |
| 1000 to 10000 nM | 1000 to 10000 nM | 1000 to 10000 nM | C#CCCOc1ccc(CO[C@]2(C(=O)O)C[C@H](O)[C@@H](NC(=O)CO)[C@H]([C@H](O)[C@H](O)CNC(=O)Cc3cccc(NC(C)=O)c3)O2)cc1 [Compound 164, (2R,4S,5R,6R)-6-((1R,2R)-3-(2-(3-acetamidophenyl)acetamido)-1,2-dihydroxypropyl)-2-((4-(but-3-yn-1-yloxy)benzyl)oxy)-4-hydroxy-5-(2-hydroxyacetamido)tetrahydro-2H-pyran-2-carboxylic acid] |
| 1000 to 10000 nM | < 1000 nM | 1000 to 10000 nM | C#CCCOc1ccc(CO[C@]2(C(=O)O)C[C@H](O)[C@@H](NC(=O)CO)[C@H]([C@H](O)[C@H](O)CNC(=O)Cc3cccc(-c4ccccc4O)c3)O2)cc1 [Compound 46, (2R,4S,5R,6R)-2-((4-(but-3-yn-1-yloxy)benzyl)oxy)-6-((1R,2R)-1,2-dihydroxy-3-(2-(2′-hydroxy-[1,1′-biphenyl]-3-yl)acetamido)propyl)-4-hydroxy-5-(2-hydroxyacetamido)tetrahydro-2H-pyran-2-carboxylic acid] |
